The conditions of data set [1]: in vivo.
Experimental: (§1) The infusion was therefore discontinued and 250 mL of fresh frozen plasma was administered over 3 hours.
The subject of data set [2] is patient with severe, chronic hypervitaminosis A. The following applies: human, in vivo.
Experimental: as §1

As to 2-hydroxypropyl-β-cyclodextrin, in data set [1], the LDM came out at 536 U/L; the “Serum pH and concentrations of glucose, protein, albumin, calcium, phosphate, and hepatic transaminases” value is reported as “remained normal throughout the infusion”; the chloride is reported as 107 M EQ/L; the sodium is recorded as 138 M EQ/L. Moreover, the symptoms during infusion entry in data set [2] is “generalized irritability and pain in the legs and shins”.

The values above are taken from patent publication US4877778A, “Method of enhancing lipophile transport using cyclodextrin derivatives” (priority 1987, dated 1989).
